Experimental data published in patent publication US7459455B2, “Pyrimidine compounds” (SmithKline Beecham Corporation, priority 2002, dated 2008).
Structures can show the parent of a compound that is named as a salt.

Columns and labels:
[1] = target: T1, Recombinant GST-Tie2 (Homo sapiens, UniProt Q02763); assay: Tie2 Fluorescence Polarization Kinase Activity Assay (TIE2-FP); assay type: biochemical; conditions: activated Tie2, 200 μM ATP
T1 construct: GST
Procedure: Tie2 Fluorescence Polarization Kinase Activity Assay: (TIE2-FP)
Activation of Recombinant Tie2 Activation:
Recombinant GST-Tie2 was activated by incubating the enzyme in 20 mM Tris-HCl, pH 7.5, 12 mM MgCl2, 100 mM NaCl, 20 μM sodium vanidate, 1 mM DT and 300 μM ATP at room temperature for 2 hours. The activation mixture was then passed through a NAP-25 desalting column (Pharmacia Biotech cat. no. 17-0852-O2) to remove the free ATP. The activated enzyme was stored as aliquots at −80° C. in 20 mM Tris-HCl, pH 7.5 and 100 mM NaCl.
The final assay conditions were 50 mM HEPES, pH 7.5, 5% DMSO (when screening compounds), 200 μM ATP, 5 mM MgCl2, 1 mM DTT, 50 μM sodium vanidate, 1 nM activated enzyme, and 200 μM peptide. IC50's of compounds were measured under subsaturating ATP (200 μM) and varing concentrations of activated Tie2 and peptide substrate (RFWKYEFWR-OH; MW 1873 Da, TFA salt). Panvera Anti-phosphotyrosine antibody (Cat#P2840) and PTK Green Tracer (Cat#P2842) were used to detect the phosphorylated peptide. Polarization was measured on a TECAN Polarion in 138-second cycles for 30 minutes at room temperature. IC50's were then determined from the % polarization using normal calculation methods.

[2] = target: T2, GST-VEGFR2 (Homo sapiens, UniProt P35968); assay: VEGF-R2 Enzyme Assay (VEGF-E), LANCE method; assay type: biochemical; conditions: GST-VEGFR2, 75 μM ATP, peptide phosphorylation
T2 construct: GST-VEGFR2, baculovirus expressed recombinant constructs of the intracellular domains of human TIE2 tagged by GST; made in house
Source text: VEGF-R2 Enzyme Assay VEGF-E)
The VEGF enzyme assay used the LANCE method (Wallac) and GST-VEGFR2, baculovirus expressed recombinant constructs of the intracellular domains of human TIE2 tagged by GST. The method measured the ability of the purified enzymes to catalyse the transfer of the γ-phosphate from ATP onto tyrosine residues in a biotinylated synthetic peptide, (biotin-aminohexyl-EEEEYFELVAKKKK-NH2). This peptide phosphorylation was detected using the following procedure: GST-VEGFR2 was incubated for 40-60 mins at room temperature with 75 μM ATP, 5 mM MgCl2, 0.1 mM DTT, 0.1 mg/mL BSA and the test compound (diluted from a 10 mM stock in DMSO for desired concentration) in 100 mM HEPES buffer. The reaction was stopped by the addition of EDTA (final concentration 50 mM). Streptavidin linked-APC (allophycocyanin, Molecular Probe) and Europium-labeled anti-phosphorylated tyrosile antibody (Wallac) were then added at the final concentration of 15 nM and 1 nM, respectively. The APC signal was measured using an ARVO multilabel counter (Wallac Berthold, Japan). The percent inhibition of activity was calculated relative to blank control wells. The concentration of test compound that inhibits 50% of activity (IC50) was interpolated using nonlinear regression (Levernberg-Marquardt) and the equation, γ=Vmax (1−x/(K+x))+Y2, where “K” was equal to the IC50. The IC50 values were converted to pIC50 values, i.e., −log IC50 in Molar concentration.

[3] = system: Human umbilical cord endothelial cells (HUVEC); assay: VEGF-Driven Cellular Proliferation Assay: BrdU Incorporation Assay (VEGF-C); assay type: cell-based
Procedure: VEGF-Driven Cellular Proliferation Assay: BrdU Incorporation Assay (VEGF-C)
Human umbilical cord endothelial cells (HUVEC, Clonetics, CC2519) were passaged in Type I collagen-coated 100-mm petridishes in EGM-MV medium (Clonetics, CC3125) at 37 C in a humidified 5% CO2, 95% air incubator. (HUVEC passaged more than 6 times in vitro were discarded and not subjected to assaying.) The cells were harvested using trypsin/EDTA, counted using a haemocytometer and plated at 5000 cells/well in a Type I-collagen coated 96-well plate (Becton Dickinson, 354407) in M199 medium (Gibco BRL, 12340-030) containing 5% FBS (Hyclone, A 1115-L) and gentamicin (at 50 ug/ml, Gibco BRL). After incubation overnight at 37° C., the media were replaced with 100 ul of M199 serum-free medium containing compounds at various concentrations with 0.6% DMSO and gentamicin. The compounds were diluted in serum-free M199 medium from 10 mM stock solutions prepared in 100% DMSO. After a 30 min incubation at 37° C. the cells were fed with 100 ul of serum-free M199 medium containing gentamicin, 0.2% culture-grade bovine serum albumin (BSA, Sigma A1993) and 20 ng/ml of VEGF (R&D systems, 293-VE) or 0.6 ng/ml of basic FGF (R&D systems, 233-FB), and cultured at 37° C. for another 24 h. The cells were pulsed with bromodeoxyuridine (BrdU at 10 μM in serum-free M199) at 37° C. for an additional 24 h. The incorporation of BrdU into the proliferating HUVEC were analyzed using BrdU Cell Proliferation ELISA (Roche Molecular Biochemicals, 1647229) according to the manufacturer's protocols. The optical density at 450 nm was measured with a multilabel counter (ARVO SX, Wallac). The percent inhibition of cell growth was calculated relative to blank control wells. The concentration of test compound that inhibits 50% of cell growth (IC50) was interpolated using nonlinear regression (Levernberg-Marquardt) and the equation, γ=Vmax (1−x/(K+x))+Y2, where “K” was equal to the IC50. The IC50 values were converted to pIC50 values, i.e., −log IC50 in Molar concentration.

T1 sequence (Q02763 770-1124 limits assumed): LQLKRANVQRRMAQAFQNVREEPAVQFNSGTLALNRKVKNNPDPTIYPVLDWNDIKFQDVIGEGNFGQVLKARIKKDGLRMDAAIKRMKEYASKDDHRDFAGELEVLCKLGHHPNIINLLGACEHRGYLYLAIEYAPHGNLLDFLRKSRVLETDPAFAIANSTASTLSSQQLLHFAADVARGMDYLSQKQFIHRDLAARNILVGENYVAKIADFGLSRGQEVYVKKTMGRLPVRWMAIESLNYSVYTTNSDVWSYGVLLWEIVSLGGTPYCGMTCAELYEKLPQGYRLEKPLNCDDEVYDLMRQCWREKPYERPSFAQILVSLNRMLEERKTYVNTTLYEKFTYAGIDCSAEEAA
T2 sequence (P35968 786-1356 limits assumed): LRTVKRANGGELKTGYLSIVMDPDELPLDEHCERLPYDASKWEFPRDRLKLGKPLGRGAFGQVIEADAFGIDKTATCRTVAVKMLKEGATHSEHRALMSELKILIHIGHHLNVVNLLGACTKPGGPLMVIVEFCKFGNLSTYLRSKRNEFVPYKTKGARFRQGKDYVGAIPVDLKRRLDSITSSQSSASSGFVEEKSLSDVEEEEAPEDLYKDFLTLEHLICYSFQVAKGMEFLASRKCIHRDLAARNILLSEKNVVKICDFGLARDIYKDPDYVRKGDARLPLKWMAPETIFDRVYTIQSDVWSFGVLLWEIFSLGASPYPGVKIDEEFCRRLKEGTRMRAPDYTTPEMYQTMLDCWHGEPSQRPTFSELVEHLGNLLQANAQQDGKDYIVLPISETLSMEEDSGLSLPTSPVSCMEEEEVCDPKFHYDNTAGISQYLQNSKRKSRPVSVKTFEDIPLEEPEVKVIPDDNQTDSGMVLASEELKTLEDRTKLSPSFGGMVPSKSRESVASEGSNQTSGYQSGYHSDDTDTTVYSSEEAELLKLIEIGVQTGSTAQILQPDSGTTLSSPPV

SMILES | IC50 [1] [nM] | IC50 [2] [nM] | IC50 [3] [nM]
CN(c1ccc(NC(=O)Nc2ccc(OC(F)(F)F)cc2)cc1)c1ccnc(Nc2cccc(S(N)(=O)=O)c2)n1 [Example 1, 3-{[4-(methyl{4-[({[4-(trifluoromethoxy)phenyl]amino}carbonyl)amino]phenyl}-amino)pyrimidin-2-yl]amino}benzenesulfonamide] | < 100 | < 100 | < 100
CN(c1ccc(NC(=O)Nc2ccc(C(F)(F)F)cc2)cc1)c1ccnc(Nc2cccc(S(N)(=O)=O)c2)n1 [Example 2, 3-{[4-(methyl{4-[({[4-(trifluoromethyl)phenyl]amino}carbonyl)amino]phenyl}amino)pyrimidin-2-yl]amino}benzenesulfonamide] | < 100 | < 100 | < 100
CN(c1ccc(NC(=O)Nc2ccc(Oc3ccccc3)cc2)cc1)c1ccnc(Nc2cccc(S(N)(=O)=O)c2)n1 [Example 3, 3-[(4-{methyl[4-({[(4-phenoxyphenyl)amino]carbonyl}amino)phenyl]amino}-pyrimidin-2-yl)amino]benzenesulfonamide] | < 100 | < 100 | < 100
CN(c1ccc(NC(=O)Nc2cccc(F)c2)cc1)c1ccnc(Nc2cccc(S(N)(=O)=O)c2)n1 [Example 7, 3-({4-[[4-({[(3-Fluorophenyl)amino]corbonyl}amino)phenyl](methyl)amino]pyrimidin-2-yl}amino)benzenesulfonamide] | < 100 | < 100 | < 100
CN(c1ccc(NC(=O)Nc2ccccc2)cc1)c1ccnc(Nc2cccc(S(N)(=O)=O)c2)n1 [Example 10, 3-({4-[{4-[(anilinocarbonyl)amino]phenyl}(methyl)amino]pyrimidin-2-yl}amino)benzenesulfonamide] | < 100 | < 100 | < 100
CN(c1ccc(NC(=O)Nc2cccc(F)c2)cc1)c1ccnc(Nc2ccc(CS(C)(=O)=O)cc2)n1 [Example 12, N-(3-fluorophenyl)-N′-(4-{methyl[2-({4-[(methylsulfonyl)methyl]phenyl}amino)pyrimidin-4-yl]amino}phenyl)urea hydrochloride] | < 100 | < 100 | < 100
CN(c1ccc(NC(=O)Nc2cc(C(F)(F)F)ccc2F)cc1)c1ccnc(Nc2ccc(CS(C)(=O)=O)cc2)n1 [Example 13, N-[2-fluoro-5-(trifluoromethyl)phenyl]-N′-(4-{methyl[2-({4-(methylsulfonyl)methyl]phenyl}amino)pyrimidin-4-yl]amino}phenyl)urea hydrochloride] | < 100 | < 100 | < 100
CN(c1cccc(NC(=O)Nc2cc(C(F)(F)F)ccc2F)c1)c1ccnc(Nc2cccc(S(N)(=O)=O)c2)n1 [Example 14, 3-({4-[{3-[({[2-Fluoro-5-(trifluoromethyl)phenyl]amino}carbonyl)amino]phenyl}(methyl)amino]pyrimidin-2-yl}amino)benzenesulfonamide] | < 100 | < 100 | < 100
CN(c1cccc(NC(=O)Nc2cccc(Cl)c2)c1)c1ccnc(Nc2cccc(S(N)(=O)=O)c2)n1 [Example 15, 3-({4-[[3-({[(3-Chlorophenyl)amino]carbonyl}amino)phenyl](methyl)amino]pyrimidin-2-yl}amino)benzenesulfonamide] | < 100 | < 100 | < 100
CCS(=O)(=O)c1ccc(OC)c(Nc2nccc(N(C)c3ccc(NC(=O)Nc4cc(C(F)(F)F)ccc4F)cc3)n2)c1 [Example 17, N-{4-[(2-{[5-(Ethylsulfonyl)-2-methoxyphenyl]amino}pyrimidin-4-yl)(methyl)amino]phenyl}-N′-[2-fluoro-5-(trifluoromethyl)phenyl]urea] | < 100 | < 100 | < 100

Second part, led by results:

IC50 [1] [nM] | IC50 [2] [nM] | SMILES | IC50 [3] [nM]
< 100 | < 100 | Cc1cccc(NC(=O)Nc2ccc(N(C)c3ccnc(Nc4cccc(S(N)(=O)=O)c4)n3)cc2)c1 [Example 4, 3-[(4-{methyl[4-({[(3-methylphenyl)amino]carbonyl}amino)phenyl]amino}pyrimidin-2-yl)amino]benzenesulfonamide] | < 100
< 100 | < 100 | CN(c1ccc(NC(=O)NCc2ccccc2Cl)cc1)c1ccnc(Nc2cccc(S(N)(=O)=O)c2)n1 [Example 5, 3-({4-[[4-({[(2-chlorobenzyl)amino]carbonyl}amino)phenyl](methyl)amino]pyrimidin-2-yl}amino)benzenesulfonamide] | < 100
< 100 | < 100 | CCc1cccc(NC(=O)Nc2ccc(N(C)c3ccnc(Nc4cccc(S(N)(=O)=O)c4)n3)cc2)c1 [Example 6, 3-({4-[[4-({[(3-ethylphenyl)amino]carbonyl}amino)phenyl](methyl)amino]pyrimidin-2-yl}amino)benzenesulfonamide] | < 100
< 100 | < 100 | CCS(=O)(=O)c1ccc(OC)c(Nc2nccc(N(C)c3ccc(NC(=O)Nc4cccc(Cl)c4)cc3)n2)c1 [Example 8, N-(3-Chlorophenyl)-N′-{4-[(2-{[5-(ethylsulfonyl)-2-methoxyphenyl]amino}pyrimidin-4-yl)(methyl)amino]phenyl}urea] | < 100
< 100 | < 100 | CN(c1ccc(NC(=O)Nc2cccc(Cl)c2)cc1)c1ccnc(Nc2cccc(S(N)(=O)=O)c2)n1 [Example 9, 3-({4-[[4-({[(3-Chlorophenyl)amino]carbonyl}amino)phenyl](methyl)amino]-pyrimidin-2-yl}amino)benzenesulfonamide] | < 100
< 100 | < 100 | CN(c1ccc(NC(=O)Nc2cc(C(F)(F)F)ccc2F)cc1)c1ccnc(Nc2cccc(S(N)(=O)=O)c2)n1 [Example 11, 3-({4-[{4-[({[2-Fluoro-5-(trifluoromethyl)phenyl]amino}carbonyl)amino]phenyl}(methyl)amino]pyrimidin-2-yl}amino)benzenesulfonamide] | < 100
100 to 1000 | < 100 | CN(c1cccc(NC(=O)Nc2cccc(F)c2)c1)c1ccnc(Nc2cccc(S(N)(=O)=O)c2)n1 [Example 16, 3-({4-[[3-({[(3-Fluorophenyl)amino]carbonyl}amino)phenyl](methyl)amino]pyrimidin-2-yl}amino)benzenesulfonamide] | < 100
